For one assay, the target named is T1, PNPLA1 (Homo sapiens, UniProt Q8N8W4).
T1 construct: expressed in transfected cells; host or cells: HEK293T cells
The assay is described as follows: PNPLA1-dependent ω-O-acylceramide formation in HEK293T cells. Conditions: NG-497 40 µM, Orlistat 40 µM. Type of assay: cell-based. On the procedure:
Fig. S3: Investigation of off-target effects of NG-497 on structurally and functionally related lipid hydrolases. (a) PNPLA1-dependent formation of acylceramides was monitored in a cell-based assay in HEK293T cells. Experiments were performed in the presence or absence of NG-497 (40 µM) and the non-selective lipase inhibitor Orlistat (40 µM). Orlistat, but not NG-497, inhibited PNPLA1/CGI-58-dependent ω-O-acylceramide formation. (b-h) Enzymes were overexpressed in Expi293 cells and cell lysates were used as source of enzymatic activity. […] Experiments were performed in the presence or absence of NG-497 (100 µM) and the formation of reaction products was monitored. […]
Data were calculated relative to the basal activity detected in LacZ-transfected controls. […]
LPL activity was inhibited using an anti-LPL antibody. All data are presented as mean ± S.D. Statistical significance was determined via ANOVA followed by Bonferroni post hoc test ( ***, p < 0.001). […]
Released free fatty acids were quantified via NEFA C kit (Fujifilm Wako Chemicals, Neuss, Germany) and release of p-nitrophenol was measured at 405 nm. […] Cellular ω-O-acylceramide formation was monitored using [1-14C]linoleic acid as tracer. […] The activity of purified human pancreatic lipase (MilliporeSigma #SRE0028) was determined as previously described7 in the presence or absence of NG-497 (100µM) or Orlistat (20 µM). […]

In another assay the target is T2, human ATGL (Homo sapiens, UniProt Q96AD5).
T2 construct: host or cells: Expi293 cells, crude lysate
T2 sequence (Q96AD5 1-504): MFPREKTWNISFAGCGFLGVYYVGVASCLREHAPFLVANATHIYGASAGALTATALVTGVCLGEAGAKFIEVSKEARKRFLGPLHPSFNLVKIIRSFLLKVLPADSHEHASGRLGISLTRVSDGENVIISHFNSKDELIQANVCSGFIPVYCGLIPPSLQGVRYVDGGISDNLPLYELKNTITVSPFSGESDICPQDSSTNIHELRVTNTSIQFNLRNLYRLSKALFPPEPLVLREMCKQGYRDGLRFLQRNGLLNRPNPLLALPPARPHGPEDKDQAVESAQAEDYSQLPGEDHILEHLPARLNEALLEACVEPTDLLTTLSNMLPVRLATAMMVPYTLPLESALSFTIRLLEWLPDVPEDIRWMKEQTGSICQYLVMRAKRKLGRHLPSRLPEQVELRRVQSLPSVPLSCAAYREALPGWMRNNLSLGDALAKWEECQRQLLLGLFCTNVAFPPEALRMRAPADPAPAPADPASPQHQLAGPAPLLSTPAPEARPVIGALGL
Description: TAG hydrolase assay, lysates of Expi293 cells overexpressing ATGL, purified CGI-58, radiolabeled triolein. Type of assay: biochemical. Conditions: inhibition of TAG hydrolase activity of human ATGL, Expi293 lysates, purified CGI-58, radiolabeled triolein. The source says: We previously developed Atglistatin (Ai), a selective inhibitor of mouse ATGL,[31],[32] which is ineffective against human ATGL.[17] Ai acts as a competitive inhibitor targeting the minimal active domain of ATGL ranging from aa 1–254.[33] This domain is highly conserved in different mammalian species (∼90% identity, Table 1) and comprises the patatin-like domain, eponymous for all members of the patatin-like phospholipase domain-containing (PNPLA) protein family.[34] We first investigated the species selectivity of Ai by performing TAG hydrolase assays[35] with lysates from Expi293 cells expressing ATGL orthologues of different species. The activity of ATGL is strongly stimulated by the co-activator protein comparative gene identification-58 (CGI-58, also known as α/β hydrolase domain containing 5, ABHD5)[36] and can be suppressed by the inhibitory protein G0/G1 switch 2 (G0S2).[37] We therefore determined ATGL activity in the presence and absence of mouse CGI-58, mouse G0S2, and Ai. As shown in Figure 1a–i, all ATGL orthologues were expressed, enzymatically active, stimulated by mouse CGI-58, and inactivated by mouse G0S2. Ai inhibited mouse (Figure 1a), rat (Figure 1b), goat (Figure 1c), dog (Figure 1e), and marmoset ATGL (Figure 1f), but not pig (Figure 1d), rhesus monkey (Figure 1g), or human ATGL (Figure 1h).
To develop an inhibitor for human ATGL, we screened compounds synthesized in the course of the development of Ai.[31] Screenings were performed in the presence of purified CGI-58 using cell lysates of Expi293 cells overexpressing ATGL as a source of enzymatic activity and radiolabeled triolein as substrate as described above (Figure 1). […] In an iterative optimization process, which encompassed the synthesis and testing of >150 compounds (not shown), we varied the nature of the top aryl ring (Figure 2a). Replacement of the top phenyl group with a pyridine moiety (compound 2) led to a significant improvement in inhibitor efficacy (IC50 = 3 μM), which we interpret as a result from a smaller angle between the 1,3-arrangement of the aryl- and the ester-substituents due to the shorter C–N bond length within the pyridine group. […] The introduction of a methoxy residue at this position finally led to compound NG-497 showing an IC50 value of 1 μM.
Experimental details, materials, and methods
Expression of recombinant ATGL constructs and preparation of cell lysates. Expi293 cells were cultivated in Expi293 Expression Medium (GIBCO, Thermo Fisher Scientific, Waltham, USA) at standard conditions (37°C, 5% CO2, 95% humidified atmosphere, 125 rpm). DNA constructs containing ATGL from different species and chimeric ATGL variants in pcDNA3.1(+)myc-His C Vector were obtained from BioCat GmbH (Heidelberg, Germany). Cells were transfected with ExpiFectamine293 Transfection Kit (GIBCO) in Opti-Mem reduced serum medium (GIBCO) according to the manufacturer’s instructions. After 48 h, cells were harvested by centrifugation and washed three times with PBS. Cells were disrupted in buffer A (0.25 M sucrose, 1 mM EDTA, 1 mM dithiothreitol, 20µg/ml leupeptin, 2 µg/ml antipain, 1 µg/ml pepstatin, pH 7.0) by sonication (Virsonic 475, Virtis, Gardiner, USA). Nuclei and debris were removed by centrifugation at 1,000 g and 4°C for 10 min. Protein concentrations were determined using Bio-Rad protein assay (Bio-Rad 785, Bio-Rad Laboratories, Munich, Germany) using BSA as standard.
Expression and purification of mouse CGI-58. CGI-58 was expressed and purified as described 1. In brief, the coding sequence of mouse Cgi-58 was cloned into pHis-Sumo and co-transformed with the plasmid pTf16 expressing the chaperone Tig into E. coli BL21(DE3). Cells were cultured overnight at 37°C and 180 rpm in the presence of 40 µg/ml kanamycin and 34 µg/ml chloramphenicol. Thereafter, cells were transferred into fresh LB medium, grown until OD600 of 0.6, and expression was induced […]
by the addition of 0.5 mM IPTG. […]

T1 sequence (Q8N8W4 whole entry): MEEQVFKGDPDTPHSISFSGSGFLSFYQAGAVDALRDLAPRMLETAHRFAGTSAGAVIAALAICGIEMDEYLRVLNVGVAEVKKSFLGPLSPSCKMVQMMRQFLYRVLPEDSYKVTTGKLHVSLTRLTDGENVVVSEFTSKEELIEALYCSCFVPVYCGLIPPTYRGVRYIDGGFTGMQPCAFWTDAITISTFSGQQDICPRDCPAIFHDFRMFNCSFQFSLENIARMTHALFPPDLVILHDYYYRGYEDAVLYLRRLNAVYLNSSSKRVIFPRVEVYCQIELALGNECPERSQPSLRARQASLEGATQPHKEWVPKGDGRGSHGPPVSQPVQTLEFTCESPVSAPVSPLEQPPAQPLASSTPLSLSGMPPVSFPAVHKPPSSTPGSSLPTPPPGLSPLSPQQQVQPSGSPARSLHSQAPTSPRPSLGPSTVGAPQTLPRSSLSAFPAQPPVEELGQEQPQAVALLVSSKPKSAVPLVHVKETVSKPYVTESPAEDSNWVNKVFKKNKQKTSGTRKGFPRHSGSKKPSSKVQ

Turning to `CCCCCCCCCCC[C@@H](C[C@@H]1OC(=O)[C@H]1CCCCCC)OC(=O)[C@H](CC(C)C)NC=O` [Orlistat, reference compound], the “PNPLA1/CGI-58-dependent ω-O-acylceramide formation” value on PNPLA1 is reported as “inhibited”.

The term IC50 denotes the midpoint of a concentration-inhibition curve. Low values mean inhibition by little substance, high ones a need for much substance. As to `CCOC(=O)c1cccc(-c2ccc(OCC)cc2)c1` [compound 1], 35000 nM corresponded to half-maximal inhibition at human ATGL (IC50).

Regarding `CCOC(=O)c1cccc(-c2ccc(OCC)cc2)n1` [compound 2], on human ATGL, the midpoint of inhibition, the IC50, lay at 3000 nM.

At human ATGL, `CCOc1ccc(-c2cccc(C(=O)OC(C)C)n2)cc1` [compound 3] yielded a half-maximal inhibitory concentration (IC50) of 1800 nM.

In the case of `CCOc1ccc(-c2cc(C)cc(C(=O)OC(C)C)n2)cc1` [compound 4], the IC50 against human ATGL came out at 1600 ± 100 nM.

These data come from PMC9011347, “Small-Molecule Inhibitors Targeting Lipolysis in Human Adipocytes” (Journal of the American Chemical Society, 2022).
